In PubChem BioAssay AID602459 (Sanford-Burnham Center for Chemical Genomics, 2012):

Each molecule was assayed against Neurotensin receptor type 1 (Homo sapiens) (UniProt P30989) (assay: NTR1 agonist-evoked calcium mobilization, SAR follow-up, cell-based, fluorescence, calcium flux, dose response (AID 602459)). Conditions: NTR1-expressing cells, agonist mode; call rule not given here.
Sequence of Neurotensin receptor type 1 (Homo sapiens) (P30989 whole entry, looked up): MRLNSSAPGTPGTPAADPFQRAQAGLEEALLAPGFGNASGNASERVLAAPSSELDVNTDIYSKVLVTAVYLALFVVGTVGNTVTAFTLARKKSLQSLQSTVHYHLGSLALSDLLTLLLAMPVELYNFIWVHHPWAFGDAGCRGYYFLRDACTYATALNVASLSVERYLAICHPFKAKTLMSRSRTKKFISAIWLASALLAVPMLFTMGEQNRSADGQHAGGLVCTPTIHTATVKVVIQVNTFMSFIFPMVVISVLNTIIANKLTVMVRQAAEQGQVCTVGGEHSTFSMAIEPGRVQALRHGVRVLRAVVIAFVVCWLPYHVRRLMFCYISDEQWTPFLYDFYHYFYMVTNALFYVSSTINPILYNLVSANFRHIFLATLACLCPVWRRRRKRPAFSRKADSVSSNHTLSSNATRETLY

EC50, active:
COc1cc2c3nnc(-c4ccc(F)cc4)c-3cn(Cc3cccc(C)c3)c2cc1OC 1500 nM
COc1cccc(OC)c1-c1cc(C(=O)N[C@@H](CC(C)C)C(=O)O)nn1-c1ccnc2cc(Cl)ccc12 < 156 nM
COc1cccc(OC)c1-c1nc(C(=O)N[C@@H](CC(C)C)C(=O)O)cn1-c1ccnc2cc(Cl)ccc12 298 nM
